Laboratory results taken from patent US8088815B2, “Spiroindolinone pyrrolidines” (Hoffman-La Roche Inc., priority 2009, dated 2012).

target: interaction between p53 and MDM2 proteins (Homo sapiens, UniProt Q00987); test: HTRF assay of inhibition of the p53-MDM2 interaction (GST-MDM2 / biotinylated p53 peptide); type: binding; conditions: recombinant GST-tagged MDM2 and biotinylated p53 peptide, bsa:0.02%
Sequence (Q00987 whole entry): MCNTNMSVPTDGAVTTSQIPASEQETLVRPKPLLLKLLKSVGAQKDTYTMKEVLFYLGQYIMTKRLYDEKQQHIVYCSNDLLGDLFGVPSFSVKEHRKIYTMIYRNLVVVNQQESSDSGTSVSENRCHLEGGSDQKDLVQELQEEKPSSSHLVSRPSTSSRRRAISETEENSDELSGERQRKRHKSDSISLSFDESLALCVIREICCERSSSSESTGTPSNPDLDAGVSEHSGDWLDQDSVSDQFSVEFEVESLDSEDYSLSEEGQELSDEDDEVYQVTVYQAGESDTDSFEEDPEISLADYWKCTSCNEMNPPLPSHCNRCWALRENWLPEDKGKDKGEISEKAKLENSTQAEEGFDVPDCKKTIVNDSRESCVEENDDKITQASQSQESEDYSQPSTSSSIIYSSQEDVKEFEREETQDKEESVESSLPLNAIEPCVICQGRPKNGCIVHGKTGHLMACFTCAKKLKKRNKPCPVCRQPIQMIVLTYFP

SMILES	IC50
COc1cc(C#N)ccc1NC(=O)[C@@H]1N[C@@H](CC(C)(C)C)[C@@]2(C(=O)Nc3cc(Cl)c(F)cc32)[C@H]1c1cccc(Cl)c1F (racemic) [Example 112, rac-(2′S,3′R,4′S,5′R)-6-chloro-4′-(3-chloro-2-fluoro-phenyl)-2′-(2,2-dimethyl-propyl)-5-fluoro-2-oxo-1,2-dihydro-spiro[indole-3,3′-pyrrolidine]-5′-carboxylic acid (4-cyano-2-methoxy-phenyl)-amide]	15 nM
COc1cc(C#N)ccc1NC(=O)[C@@H]1N[C@@H](CC(C)(C)C)[C@@]2(C(=O)Nc3cc(Cl)ccc32)[C@H]1c1cccc(Br)c1F (racemic) [Example 116, rac-(2′S,3′R,4′S,5′R)-4′-(3-bromo-2-fluoro-phenyl)-6-chloro-2′-(2,2-dimethyl-propyl)-2-oxo-1,2-dihydro-spiro[indole-3,3′-pyrrolidine]-5′-carboxylic acid (4-cyano-2-methoxy-phenyl)-amide]	15 nM
COC(=O)c1ccc(NC(=O)[C@@H]2N[C@@H](CC(C)(C)C)[C@@]3(C(=O)Nc4cc(Cl)ccc43)[C@H]2c2cc(F)cc(Cl)c2)c(OC)c1 (racemic) [Example 124, rac-4-{[(2′S,3′R,4′R,5′R)-6-chloro-4′-(3-chloro-5-fluoro-phenyl)-2′-(2,2-dimethyl-propyl)-2-oxo-1,2-dihydro-spiro[indole-3,3′-pyrrolidine]-5′-carbonyl]-amino}-3-methoxy-benzoic acid methyl ester]	15 nM
COC(=O)c1ccc(NC(=O)[C@@H]2N[C@@H](CC(C)(C)C)[C@@]3(C(=O)Nc4cc(Cl)ccc43)[C@H]2c2ccc(F)c(Cl)c2)c(OC)c1 (racemic) [Example 126, rac-4-{[(2′S,3′R,4′R,5′R)-6-chloro-4′-(3-chloro-4-fluoro-phenyl)-2′-(2,2-dimethyl-propyl)-2-oxo-1,2-dihydro-spiro[indole-3,3′-pyrrolidine]-5′-carbonyl]amino}-3-methoxy-benzoic acid methyl ester]	29 nM
CCOc1cc(C(N)=O)ccc1NC(=O)[C@@H]1N[C@@H](CC(C)(C)C)[C@@]2(C(=O)Nc3cc(Cl)ccc32)[C@H]1c1cccc(Cl)c1F (racemic) [Example 131, rac-(2′S,3′R,4′S,5′R)-6-chloro-4′-(3-chloro-2-fluoro-phenyl)-2′-(2,2-dimethyl-propyl)-2-oxo-1,2-dihydro-spiro[indole-3,3′-pyrrolidine]-5′-carboxylic acid (4-carbamoyl-2-ethoxy-phenyl)-amide]	14 nM
COc1cc(S(=O)(=O)N2CCOCC2)ccc1NC(=O)[C@@H]1N[C@@H](CC(C)(C)C)[C@@]2(C(=O)Nc3cc(Cl)ccc32)[C@H]1c1cccc(Cl)c1F (racemic) [Example 138, rac-(2′S,3′R,4′S,5′R)-6-chloro-4′-(3-chloro-2-fluoro-phenyl)-2′-(2,2-dimethyl-propyl)-2-oxo-1,2-dihydro-spiro[indole-3,3′-pyrrolidine]-5′-carboxylic acid [2-methoxy-4-(morpholine-4-sulfonyl)-phenyl]-amide]	13 nM
COc1cc(N2CCOCC2)ccc1NC(=O)[C@@H]1N[C@@H](CC(C)(C)C)[C@@]2(C(=O)Nc3cc(Cl)ccc32)[C@H]1c1cccc(Cl)c1F (racemic) [Example 143, rac-(2′S,3′R,4′S,5′R)-6-chloro-4′-(3-chloro-2-fluoro-phenyl)-2′-(2,2-dimethyl-propyl)-2-oxo-1,2-dihydro-spiro[indole-3,3′-pyrrolidine]-5′-carboxylic acid (2-methoxy-4-morpholin-4-yl-phenyl)-amide]	15 nM
COc1cc(N2CC(C)OC(C)C2)ccc1NC(=O)[C@@H]1N[C@@H](CC(C)(C)C)[C@@]2(C(=O)Nc3cc(Cl)ccc32)[C@H]1c1cccc(Cl)c1F (mixture of isomers) [Example 144, rac-(2′S,3′R,4′S,5′R)-6-chloro-4′-(3-chloro-2-fluoro-phenyl)-2′-(2,2-dimethyl-propyl)-2-oxo-1,2-dihydro-spiro[indole-3,3′-pyrrolidine]-5′-carboxylic acid [4-(2,6-dimethyl-morpholin-4-yl)-2-methoxy-phenyl]-amide]	19 nM
CC(C)(C)C[C@@H]1N[C@@H](C(=O)Nc2ccc(C(N)=O)cc2OC(F)(F)F)[C@H](c2cccc(Cl)c2F)[C@]12C(=O)Nc1cc(Cl)ccc12 (racemic) [Example 146, rac-(2′S,3′R,4′S,5′R)-6-chloro-4′-(3-chloro-2-fluoro-phenyl)-2′-(2,2-dimethyl-propyl)-2-oxo-1,2-dihydro-spiro[indole-3,3′-pyrrolidine]-5′-carboxylic acid (4-carbamoyl-2-trifluoromethoxy-phenyl)-amide]	14 nM

More lines, in order of falling IC50, values ahead:

IC50	SMILES
13 nM	COC(=O)c1ccc(NC(=O)[C@@H]2N[C@@H](CC(C)(C)C)[C@@]3(C(=O)Nc4cc(Br)ccc43)[C@H]2c2cccc(Cl)c2F)c(OC)c1 (racemic) [Example 122, rac-4-{[(2′S,3′R,4′S,5′R)-6-bromo-4′-(3-chloro-2-fluoro-phenyl)-2′-(2,2-dimethyl-propyl)-2-oxo-1,2-dihydro-spiro[indole-3,3′-pyrrolidine]-5′-carbonyl]-amino}-3-methoxy-benzoic acid methyl ester]
12 nM	COc1cc(C#N)ccc1NC(=O)[C@@H]1N[C@@H](CC(C)(C)C)[C@@]2(C(=O)Nc3cc(Cl)ccc32)[C@H]1c1cc(F)cc(Cl)c1 (racemic) [Example 114, rac-(2′S,3′R,4′R,5′R)-6-chloro-4′-(3-chloro-5-fluoro-phenyl)-2′-(2,2-dimethyl-propyl)-2-oxo-1,2-dihydro-spiro[indole-3,3′-pyrrolidine]-5′-carboxylic acid (4-cyano-2-methoxy-phenyl)-amide]
11 nM	COc1cc(C#N)ccc1NC(=O)[C@@H]1N[C@@H](CC(C)(C)C)[C@@]2(C(=O)Nc3cc(Br)ccc32)[C@H]1c1cccc(Cl)c1F (racemic) [Example 118, rac-(2′S,3′R,4′S,5′R)-6-bromo-4′-(3-chloro-2-fluoro-phenyl)-2′-(2,2-dimethyl-propyl)-2-oxo-1,2-dihydro-spiro[indole-3,3′-pyrrolidine]-5′-carboxylic acid (4-cyano-2-methoxy-phenyl)-amide]
11 nM	CCOc1cc(C(=O)O)ccc1NC(=O)[C@@H]1N[C@@H](CC(C)(C)C)[C@@]2(C(=O)Nc3cc(Cl)ccc32)[C@H]1c1cccc(Cl)c1F (racemic) [Example 130, rac-4-{[(2′S,3′R,4′S,5′R)-6-chloro-4′-(3-chloro-2-fluoro-phenyl)-2′-(2,2-dimethyl-propyl)-2-oxo-1,2-dihydro-spiro[indole-3,3′-pyrrolidine]-5′-carbonyl]amino}-3-ethoxy-benzoic acid]
10 nM	CCOc1cc(C(=O)OC)ccc1NC(=O)[C@@H]1N[C@@H](CC(C)(C)C)[C@@]2(C(=O)Nc3cc(Cl)ccc32)[C@H]1c1cccc(Cl)c1F (racemic) [Example 129, rac-4-{[(2′S,3′R,4′S,5′R)-6-chloro-4′-(3-chloro-2-fluoro-phenyl)-2′-(2,2-dimethyl-propyl)-2-oxo-1,2-dihydro-spiro[indole-3,3′-pyrrolidine]-5′-carbonyl]-amino}-3-ethoxy-benzoic acid methyl ester]
9 nM	COc1cc(C(N)=O)ccc1NC(=O)[C@@H]1N[C@@H](CC(C)(C)C)[C@@]2(C(=O)Nc3cc(Cl)c(F)cc32)[C@H]1c1cccc(Cl)c1F (racemic) [Example 113, rac-(2′S,3′R,4′S,5′R)-6-chloro-4′-(3-chloro-2-fluoro-phenyl)-2′-(2,2-dimethyl-propyl)-5-fluoro-2-oxo-1,2-dihydro-spiro[indole-3,3′-pyrrolidine]-5′-carboxylic acid (4-carbamoyl-2-methoxy-phenyl)-amide]
7 nM	COc1cc(C(N)=O)ccc1NC(=O)[C@@H]1N[C@@H](CC(C)(C)C)[C@@]2(C(=O)Nc3cc(Cl)ccc32)[C@H]1c1cccc(Br)c1F (racemic) [Example 117, rac-(2′S,3′R,4′S,5′R)-4′-(3-bromo-2-fluoro-phenyl)-6-chloro-2′-(2,2-dimethyl-propyl)-2-oxo-1,2-dihydro-spiro[indole-3,3′-pyrrolidine]-5′-carboxylic acid (4-carbamoyl-2-methoxy-phenyl)-amide]
7 nM	COc1cc(C(N)=O)ccc1NC(=O)[C@@H]1N[C@@H](CC(C)(C)C)[C@@]2(C(=O)Nc3cc(Br)ccc32)[C@H]1c1cccc(Cl)c1F (racemic) [Example 119, rac-(2′S,3′R,4′S,5′R)-6-bromo-4′-(3-chloro-2-fluoro-phenyl)-2′-(2,2-dimethyl-propyl)-2-oxo-1,2-dihydro-spiro[indole-3,3′-pyrrolidine]-5′-carboxylic acid (4-carbamoyl-2-methoxy-phenyl)-amide]
7 nM	COc1cc(C(=O)O)ccc1NC(=O)[C@@H]1N[C@@H](CC(C)(C)C)[C@@]2(C(=O)Nc3cc(Cl)ccc32)[C@H]1c1cc(F)cc(Cl)c1 (racemic) [Example 125, rac-4-{[(2′S,3′R,4′R,5′R)-6-chloro-4′-(3-chloro-5-fluoro-phenyl)-2′-(2,2-dimethyl-propyl)-2-oxo-1,2-dihydro-spiro[indole-3,3′-pyrrolidine]-5′-carbonyl]-amino}-3-methoxy-benzoic acid]
6 nM	COc1cc(C(N)=O)ccc1NC(=O)[C@@H]1N[C@@H](CC(C)(C)C)[C@@]2(C(=O)Nc3cc(Cl)ccc32)[C@H]1c1cc(F)cc(Cl)c1 (racemic) [Example 115, rac-(2′S,3′R,4′R,5′R)-6-chloro-4′-(3-chloro-5-fluoro-phenyl)-2′-(2,2-dimethyl-propyl)-2-oxo-1,2-dihydro-spiro[indole-3,3′-pyrrolidine]-5′-carboxylic acid (4-carbamoyl-2-methoxy-phenyl)-amide]
6 nM	COc1cc(C(=O)O)ccc1NC(=O)[C@@H]1N[C@@H](CC(C)(C)C)[C@@]2(C(=O)Nc3cc(Br)ccc32)[C@H]1c1cccc(Cl)c1F (racemic) [Example 123, rac-4-{[(2′S,3′R,4′S,5′R)-6-bromo-4′-(3-chloro-2-fluoro-phenyl)-2′-(2,2-dimethyl-propyl)-2-oxo-1,2-dihydro-spiro[indole-3,3′-pyrrolidine]-5′-carbonyl]-amino}-3-methoxy-benzoic acid]
